Results on three compounds are retold here after PMC6940761, “Novel Diels–Alder Type Adducts from Morus alba Root Bark Targeting Human Monoamine Oxidase and Dopaminergic Receptors for the Management of Neurodegenerative Diseases” (International Journal of Molecular Sciences, 2019).

“And” between values parts separate entries of the source, which are not always exact repeats. Identical values can stand only once. Like-named read-outs stand apart in the source and are kept apart here.

Usually IC50 stands for the concentration that gives 50% inhibition. Broadly, the inhibition is the change of the read-out against control, counted positive when it falls. Broadly, the EC50 is the midpoint of the concentration-response curve.

Assay [1] addresses T1, human dopamine D2L receptor (hD2LR) (Homo sapiens, UniProt P14416).
T1 construct: host or cells: CHO (CHO-D2LR)
Description: cell-based functional GPCR assay, Ca2+ mobilization, CHO-D2LR. The note with it: for inhibition at 100 µM / % Stimulation of control agonist response: D2L (h), 100 µM test compound; for inhibition at 100 µM: control 700 nM DA, read-out: % Inhibition of control agonist response (converted); for % Stimulation of control agonist response: control 10 μM DA; for inhibition at 25 µM: D2LR, 25 µM test compound, read-out: % inhibition of DA response. Background: Calcium flux is commonly read through the fluorescence of an indicator in the cells.

Assay [2] deals with T2, Human Monoamine Oxidase B (hMAO-B) (Homo sapiens, UniProt P27338).
T2 construct: purchased Sigma-Aldrich
T2 sequence (P27338 1-520): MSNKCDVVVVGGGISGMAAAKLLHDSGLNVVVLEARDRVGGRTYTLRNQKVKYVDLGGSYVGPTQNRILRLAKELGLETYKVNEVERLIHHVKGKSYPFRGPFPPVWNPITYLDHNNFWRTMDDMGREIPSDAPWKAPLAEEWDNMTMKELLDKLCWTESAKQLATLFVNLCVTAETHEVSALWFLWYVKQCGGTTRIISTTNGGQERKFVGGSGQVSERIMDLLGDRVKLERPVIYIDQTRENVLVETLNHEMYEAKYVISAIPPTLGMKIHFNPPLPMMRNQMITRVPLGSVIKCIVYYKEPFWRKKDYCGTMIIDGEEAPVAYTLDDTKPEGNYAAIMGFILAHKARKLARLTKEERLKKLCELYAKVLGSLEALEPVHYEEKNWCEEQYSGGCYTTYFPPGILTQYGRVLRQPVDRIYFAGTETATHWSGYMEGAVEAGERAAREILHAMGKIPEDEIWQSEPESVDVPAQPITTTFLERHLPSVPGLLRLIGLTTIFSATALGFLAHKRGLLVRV
Description: hMAO-B inhibition, MAO-Glo chemiluminescent assay and enzyme kinetics. Format: biochemical. The note with it: for Inhibition Type: Lineweaver–Burk and Dixon plots; for IC50: log dose-inhibition curve, triplicate, read-out: IC50 (μM, Mean ± SD).

Assay [3] has as its target human dopamine D3 receptor (hD3R) (Homo sapiens, UniProt P35462). The experiment in a line: cell-based functional GPCR assay, cAMP modulation, CHO-D3R. The note with it: for inhibition at 100 µM: read-out: % Inhibition of control agonist response; for % Stimulation of control agonist response: D3 (h), 100 µM test compound, control 300 nM DA; for agonist response (%): D3R, 25 µM test compound.

Assay [4] concerns the target human dopamine D1 receptor (hD1R) (Homo sapiens, UniProt P21728). Description: cell-based functional GPCR assay, cAMP modulation, CHO-D1R. The note with it: for % Stimulation of control agonist response: D1 (h), 100 µM test compound, control 10 μM DA; for inhibition at 100 µM: read-out: % Inhibition of control agonist response; for inhibition at 25 µM: read-out: % inhibition of DA response.

For a further assay, the system named is hMAO. The experiment in a line: initial hMAO activity screen at 100 µg/mL (MAO-Glo). Format: biochemical, human. To be noted: isozyme not stated.
For assay [5], the target named is T3, human dopamine D4 receptor (hD4R) (Homo sapiens, UniProt P21917).
T3 sequence (P21917 1-419): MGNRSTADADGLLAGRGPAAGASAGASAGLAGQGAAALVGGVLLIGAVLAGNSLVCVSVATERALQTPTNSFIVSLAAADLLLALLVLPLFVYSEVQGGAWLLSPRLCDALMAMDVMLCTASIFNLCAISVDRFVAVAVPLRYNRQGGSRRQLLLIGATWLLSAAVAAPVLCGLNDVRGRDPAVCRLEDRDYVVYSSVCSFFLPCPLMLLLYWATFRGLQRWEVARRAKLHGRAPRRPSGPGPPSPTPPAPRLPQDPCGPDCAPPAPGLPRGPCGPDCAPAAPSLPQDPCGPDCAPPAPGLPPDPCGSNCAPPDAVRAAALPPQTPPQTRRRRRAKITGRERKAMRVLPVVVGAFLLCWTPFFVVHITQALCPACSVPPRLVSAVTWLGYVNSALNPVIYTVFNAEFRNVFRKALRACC
The experiment in a line: cell-based functional GPCR assay, cAMP modulation, CHO-D4R. The note with it: for % Stimulation of control agonist response: D4 (h), 100 µM test compound, control 300 nM DA; for agonist response (%): D4R, 25 µM test compound; for inhibition at 100 µM: read-out: % Inhibition of control agonist response.

The target of assay [6] is T4, Human Monoamine Oxidase A (hMAO-A) (Homo sapiens, UniProt P21397).
T4 construct: purchased Sigma-Aldrich
T4 sequence (P21397 1-527): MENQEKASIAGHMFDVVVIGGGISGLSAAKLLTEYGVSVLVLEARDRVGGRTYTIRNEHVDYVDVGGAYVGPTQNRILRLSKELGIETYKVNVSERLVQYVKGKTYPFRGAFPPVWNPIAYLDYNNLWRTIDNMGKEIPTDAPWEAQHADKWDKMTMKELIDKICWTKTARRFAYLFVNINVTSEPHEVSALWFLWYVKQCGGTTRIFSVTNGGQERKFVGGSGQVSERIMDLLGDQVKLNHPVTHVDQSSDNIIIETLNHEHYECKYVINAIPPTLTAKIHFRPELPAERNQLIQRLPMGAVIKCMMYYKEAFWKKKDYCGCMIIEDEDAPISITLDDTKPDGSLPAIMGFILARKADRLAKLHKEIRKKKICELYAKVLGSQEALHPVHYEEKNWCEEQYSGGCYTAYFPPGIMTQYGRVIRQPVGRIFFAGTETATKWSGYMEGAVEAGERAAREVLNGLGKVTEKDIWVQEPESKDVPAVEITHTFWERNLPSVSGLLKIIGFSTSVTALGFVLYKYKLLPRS
The experiment in a line: hMAO-A inhibition, MAO-Glo chemiluminescent assay and enzyme kinetics. In kind it is biochemical. The note with it: for Inhibition Type: Lineweaver–Burk and Dixon plots.

Setting [7] is: hD2LR antagonist effect, read-out: IC50 (inhibition of control agonist response).
The mark [8] stands for this setting: hMAO-A, Dixon plot, read-out: Ki Value.
Where [9] appears, read: hMAO-A, log dose-inhibition curve, triplicate, read-out: IC50 (μM, Mean ± SD).

human dopamine D3 receptor (hD3R), sequence (P35462 whole entry): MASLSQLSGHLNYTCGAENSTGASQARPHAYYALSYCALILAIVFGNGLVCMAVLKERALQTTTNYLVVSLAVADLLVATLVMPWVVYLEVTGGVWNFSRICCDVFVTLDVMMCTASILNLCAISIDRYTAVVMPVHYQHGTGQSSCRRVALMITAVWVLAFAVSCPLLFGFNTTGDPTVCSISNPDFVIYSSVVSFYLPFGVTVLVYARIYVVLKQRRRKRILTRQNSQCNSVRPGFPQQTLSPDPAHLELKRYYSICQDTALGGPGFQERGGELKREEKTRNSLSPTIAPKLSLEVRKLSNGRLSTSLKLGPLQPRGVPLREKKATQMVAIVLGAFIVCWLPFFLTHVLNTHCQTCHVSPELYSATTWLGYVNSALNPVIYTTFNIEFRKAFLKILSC
human dopamine D1 receptor (hD1R), sequence (P21728 whole entry): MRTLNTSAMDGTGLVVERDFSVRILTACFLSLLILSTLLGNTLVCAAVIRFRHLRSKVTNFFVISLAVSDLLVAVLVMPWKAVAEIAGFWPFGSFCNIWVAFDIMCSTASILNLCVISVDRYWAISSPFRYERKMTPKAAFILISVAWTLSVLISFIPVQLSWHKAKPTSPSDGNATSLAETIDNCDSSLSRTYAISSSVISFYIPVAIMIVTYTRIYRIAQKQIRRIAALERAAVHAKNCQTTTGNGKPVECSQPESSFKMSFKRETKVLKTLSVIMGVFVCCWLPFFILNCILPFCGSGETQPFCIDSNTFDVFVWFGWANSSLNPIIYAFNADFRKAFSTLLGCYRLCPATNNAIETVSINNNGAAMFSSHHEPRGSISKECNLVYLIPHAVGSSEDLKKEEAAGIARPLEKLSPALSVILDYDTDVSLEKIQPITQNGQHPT
T1 sequence (P14416 whole entry): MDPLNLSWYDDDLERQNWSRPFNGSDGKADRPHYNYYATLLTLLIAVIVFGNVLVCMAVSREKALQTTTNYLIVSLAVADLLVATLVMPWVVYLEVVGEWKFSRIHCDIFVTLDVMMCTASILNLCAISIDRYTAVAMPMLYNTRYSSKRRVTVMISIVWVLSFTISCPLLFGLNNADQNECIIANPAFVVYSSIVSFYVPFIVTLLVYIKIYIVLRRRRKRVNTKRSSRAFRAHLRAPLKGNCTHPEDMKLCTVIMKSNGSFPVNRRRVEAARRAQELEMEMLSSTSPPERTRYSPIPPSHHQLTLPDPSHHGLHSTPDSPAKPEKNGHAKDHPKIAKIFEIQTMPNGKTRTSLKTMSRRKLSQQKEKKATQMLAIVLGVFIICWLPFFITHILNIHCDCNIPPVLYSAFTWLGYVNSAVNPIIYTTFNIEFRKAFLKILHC

Turning to `CC(C)=CCc1c(-c2ccc(O)cc2O)oc2c(C3C=C(C)CC(c4ccc(O)cc4O)C3C(=O)c3ccc(O)cc3O)c(O)cc(O)c2c1=O` (stereo not drawn) [Compound 2, kuwanon G], in assay [1], it took 31.2 µM to reach half-maximal inhibition (IC50), the inhibition at 100 µM is 99.2%, the “% Stimulation of control agonist response” value (from here on “% Stimulation”) is “NSI” and the inhibition at 25 µM is 33.7%. In assay [2] (Dixon plot, read-out: Ki Value), the Ki was found to be 52.1 ± 5.56 µM. Also, in assay [2], the “Inhibition Type” value is on record as “Noncompetitive” and the IC50 amounted to 57.7 ± 2.12 µM. Further, in assay [3], the EC50 came out at 20.2 µM and the inhibition at 100 µM was -27.4%. Further, in assay [4], the IC50 came to 16.5 µM, the “% Stimulation” value is reported as 0.85 ± 0.24%, the inhibition at 100 µM was 98.8% and the inhibition at 25 µM worked out at 91.1%. The “% inhibition of hMAO activity” value in the assay with hMAO came to 99.05%. For the same compound, in assay [5], it took 21 µM to reach a half-maximal effect (EC50); the “% Stimulation” value is 90.45% and 90.45 ± 0.14%; the “agonist response (%)” value turned out to be 58.66%; the inhibition at 100 µM is -29.6%. Moreover, in assay [6], the IC50 is 70.2 ± 2.6 µM and the Ki was found to be 28.3 ± 2.02 µM. The “Inhibition Type” value in assay [6] (hMAO-A) was “Competitive”.

`CC1=C[C@H]2c3c(O)cc(-c4cc5ccc(O)cc5o4)cc3O[C@@]3(c4ccc(O)cc4O)Oc4cc(O)ccc4[C@H](C1)[C@@H]23` [Compound 1, mulberrofuran G]: the inhibition at 100 µM in assay [1] was 101%; in assay [3], -28.7%; in assay [4], 87.7%; in assay [5], -20.8%. The “% Stimulation” value was 7.10 ± 1.47% in assay [1]; 119.9% and 119.9 ± 2.44% in assay [3]; 17.2 ± 8.4% in assay [4]; 86.30% and 86.30 ± 0.99% in assay [5]. Besides, the inhibition at 25 µM was 97.2% in assay [1] and 92.3% in assay [4]. The IC50 in assay [1] (setting [7]) was 2.41 µM; in assay [2], 18.1 ± 1.06 µM; in assay [4] it was 6.13 µM; in assay [6] (setting [9]), 54.79 ± 0.03 µM. Moreover, the Ki in assay [2] (Dixon plot, read-out: Ki Value) came out at 17 ± 3.31 µM; in assay [6] (setting [8]) it was 27 ± 3.98 µM. Besides, the “Inhibition Type” value in assay [2] is given as “Noncompetitive”; in assay [6] (hMAO-A), “Competitive”. For the same compound, the EC50 was determined as 15.1 µM in assay [3] and 17.2 µM in assay [5]. Further, the “agonist response (%)” value in assay [3] was determined as 71.92%; in assay [5], 63.00%. In the assay with hMAO, the “% inhibition of hMAO activity” value is 93.87%.

Turning to `Cc1cc2c3c(c1)-c1c(O)cc(-c4cc5ccc(O)cc5o4)cc1OC3(c1ccc(O)cc1O)Oc1cc(O)ccc1-2` (stereo not drawn) [Compound 3, albanol B], the inhibition at 100 µM in assay [1] is 78.5%; in assay [3] it was -13.4%; in assay [4], 67.8%; in assay [5], 26.9%. The “% Stimulation” value in assay [1] is 4.10 ± 1.06%; in assay [3], 102.8% and 102.8 ± 1.36%; in assay [4], “INTER”; in assay [5], 46.10% and 46.10 ± 1.76%. Also, the inhibition at 25 µM came to 81.1% in assay [1] and 66.8% in assay [4]. For the same compound, the IC50 was 18.4 µM in assay [1] (setting [7]), 90.6 ± 1.72 µM in assay [2], 7.16 µM in assay [4] and 114 ± 2.3 µM in assay [6] (setting [9]). Besides, the figures for the “Inhibition Type” value in assay [2] and in assay [6] (hMAO-A) were “mixed type” and “Competitive”, respectively. In addition, the “Kiu (binding constant with enzyme-substrate complex)” value in assay [2] (secondary plot) amounted to 186.2 ± 10.26 µM. The Ki in assay [2] (secondary plot, read-out: Kic (binding constant with free enzyme)) came to 55.2 ± 7.79 µM; in assay [6] (setting [8]), 46.9 ± 4.12 µM. For the same compound, in assay [3], the EC50 turned out to be 12.6 µM. For the same compound, the “agonist response (%)” value in assay [3] is listed as 94.93%. For the same compound, the “% inhibition of hMAO activity” value with hMAO is listed as 74.85%.
